This is an account of results in US8709440B2, “Agent for expelling parasites in humans, animals or birds” (Momentum Animal Cure BVBA, priority 2009, dated 2014).

In this assay the test system is helminths that were resistant to ivermectine, pyrantel, praziquantel and moxidectine. Description: Treatment of Horse 4 severely infected with resistant parasites. It counts as in vivo. As to conditions: Horse 4 severely infected with parasites. How it is done: Horse 4 was treated with 38 g Asafoetida powder with Arabic gum mixed in milk and with cereal.
With `CO/N=C1\C[C@]2(C[C@@H]3C[C@@H](C/C=C(\C)C[C@@H](C)/C=C/C=C4\CO[C@@H]5[C@H](O)C(C)=C[C@@H](C(=O)O3)[C@]45O)O2)O[C@H](/C(C)=C/C(C)C)[C@H]1C` [moxidectine], the “result of several treatments” value is on record as “had no result”.

With `O=C(C1CCCCC1)N1CC(=O)N2CCc3ccccc3C2C1` (stereo not shown) [praziquantel], the “result of several treatments” value was “had no result”.

With `CN1CCCN=C1/C=C/c1cccs1` [pyrantel], the “result of several treatments” value is on record as “had no result”.

Consider ivermectine, for which the “result of several treatments” value was “had no result”.
